According to patent US12012411B2, “Viral replication inhibitors” (Katholieke Universiteit Leuven, priority 2011, dated 2024):

Assays:
[1] = system: uninfected quiescent Vero-B cells; test: Cytotoxic assay in uninfected quiescent Vero-B cells (MTS/PMS); conditions: 4 days (Table 3)
[2] = system: DENV-2 NGC; test: Antiviral activity against DENV-2 NGC in Vero-B cells (viral RNA load by RT-qPCR); type: cell-based, Dengue virus; conditions: Dengue virus, DENV2, Vero B, DENV-2 in Vero-B cells; inhibition of viral RNA replication by 50% (Table 3)
[3] = system: DENV-1 Djibouti strain D1/H/IMTSSA/98/606; test: Antiviral activity against DENV-1 in Vero-B cells (viral RNA load by RT-qPCR); type: cell-based, Dengue virus; conditions: Dengue virus, DENV1, Vero B
[4] = system: DENV-3 strain H87 prototype; test: Antiviral activity against DENV-3 in Vero-B cells (viral RNA load by RT-qPCR); type: cell-based, Dengue virus; conditions: Dengue virus, DENV3, Vero B
[5] = system: DENV-4 strain Dak HD 34 460; test: Antiviral activity against DENV-4 in Vero-B cells (viral RNA load by RT-qPCR); type: cell-based, Dengue virus; conditions: Dengue virus, DENV4, Vero B
[6] = in vitro; conditions: African green monkey, uninfected quiescent Vero-B cells

SMILES: O=C(c1c[nH]c2ccccc12)C(Nc1cccc(OC(F)(F)F)c1)c1ccccc1 (stereo not shown) [CPD-005]
- CC50 [1]: 5000 nM
- EC50 [2]: 930 nM

SMILES: O=C(c1c[nH]c2ccccc12)C(Nc1cccc(F)c1)c1ccccc1 (stereo not shown) [CPD-008]
- CC50 [1]: 12000 nM
- EC50 [2]: 2420 nM

SMILES: O=C(c1c[nH]c2ccccc12)C(Nc1cc(F)cc(F)c1)c1ccccc1 (stereo not shown) [CPD-011]
- CC50 [1]: 23000 nM
- EC50 [2]: 1660 nM

SMILES: COc1cc(F)cc(NC(C(=O)c2c[nH]c3ccccc23)c2ccccc2)c1 (stereo not shown) [CPD-015]
- CC50 [1]: 22000 nM
- EC50 [2]: 20 nM

SMILES: O=C(c1c[nH]c2ccccc12)C(Nc1cccnc1)c1ccccc1 (stereo not shown) [CPD-016]
- CC50 [1]: 54000 nM
- EC50 [2]: 5010 nM

SMILES: COc1cccc(NC(C(=O)c2c[nH]c3ccccc23)c2ccc(S(C)(=O)=O)cc2)c1 (stereo not shown) [CPD-021]
- CC50 [1]: > 115000 nM
- EC50 [2]: 1620 nM

SMILES: COc1cccc(NC(C(=O)c2c[nH]c3ccccc23)c2ccco2)c1 (stereo not shown) [CPD-023]
- CC50 [1]: 16000 nM
- EC50 [2]: 300 nM

SMILES: N#Cc1cccc(NC(C(=O)c2c[nH]c3ccccc23)c2ccccc2)c1 (stereo not shown) [CPD-035]
- CC50 [1]: 14000 nM
- EC50 [2]: 2110 nM

SMILES: COc1cccc(NC(C(=O)c2c[nH]c3ccccc23)c2ccc3nccnc3c2)c1 (stereo not shown) [CPD-037]
- CC50 [1]: 19000 nM
- EC50 [2]: 1200 nM

SMILES: COc1ccc(OC)c(NC(C(=O)c2c[nH]c3ccccc23)c2ccccc2)c1 (stereo not shown) [CPD-039]
- CC50 [1]: 15000 nM
- EC50 [2]: 2480 nM

SMILES: COc1cccc(NC(C(=O)c2c[nH]c3ccccc23)c2ccccc2)c1OC (stereo not shown) [CPD-040]
- CC50 [1]: > 129000 nM
- EC50 [2]: 4240 nM

SMILES: CS(=O)(=O)c1cccc(NC(C(=O)c2c[nH]c3ccccc23)c2ccccc2)c1 (stereo not shown) [CPD-044]
- CC50 [1]: 65000 nM
- EC50 [2]: 6480 nM

SMILES: O=C(c1c[nH]c2ccccc12)C(Nc1ccc2[nH]c(=O)oc2c1)c1ccccc1 (stereo not shown) [CPD-057]
- CC50 [1]: 15000 nM
- EC50 [2]: 6050 nM

SMILES: COc1ccnc(NC(C(=O)c2c[nH]c3ccccc23)c2ccccc2)c1 (stereo not shown) [CPD-066]
- CC50 [1]: 95000 nM
- EC50 [2]: 6320 nM

SMILES: COc1nc(NC(C(=O)c2c[nH]c3ccccc23)c2ccccc2)ns1 (stereo not shown) [CPD-070]
- CC50 [1]: 90000 nM
- EC50 [2]: 3270 nM

SMILES: O=C(c1c[nH]c2ccccc12)C(NC1CCCC1)c1ccccc1 (stereo not shown) [CPD-183]
- CC50 [1]: 86000 nM
- EC50 [2]: 15200 nM

SMILES: COc1cccc(NC(C(=O)c2c[nH]c3c(F)cccc23)c2ccccc2)c1 (stereo not shown) [CPD-205]
- CC50 [1]: 14000 nM
- EC50 [2]: 60 nM

SMILES: COc1cc(NC(C(=O)c2c[nH]c3ccccc23)c2ccccc2)cc(OCCN(C)C)c1 (stereo not shown) [CPD-243]
- CC50 [1]: 13000 nM
- EC50 [2]: 1690 nM

SMILES: COc1cccc(NC(C(=O)c2c[nH]c3ccccc23)c2ccccc2)n1 (stereo not shown) [CPD-277]
- CC50 [1]: 16000 nM
- EC50 [2]: 290 nM

SMILES: COc1cc(CO)cc(NC(C(=O)c2c[nH]c3ccc(F)cc23)c2ccccc2)c1 (stereo not shown) [CPD-296]
- EC50 [3]: 990 nM
- EC50 [4]: 1830 nM
- EC50 [5]: 3310 nM
- CC50 at 4 days [6]: 31000 nM
- EC50 [2]: 50 nM

SMILES: COc1cc(NC(C(=O)c2nn(C)c3ccccc23)c2ccccc2)cc(OCCO)c1 (stereo not shown) [CPD-298]
- EC50 [3]: 2020 nM
- EC50 [4]: 5790 nM
- EC50 [5]: 4520 nM
- CC50 at 4 days [6]: > 116000 nM
- EC50 [2]: 420 nM

SMILES: COc1cccc(NC(C(=O)c2c[nH]c3ccccc23)c2ccccn2)c1 (stereo not shown) [CPD-301]
- EC50 [3]: 1120 nM
- EC50 [4]: 500 nM
- EC50 [5]: 4250 nM
- CC50 at 4 days [6]: 89000 nM
- EC50 [2]: 80 nM

SMILES: COc1cc(NC(C(=O)c2cn(C)c3ccccc23)c2ccccc2)cc(OCCO)c1 (stereo not shown) [CPD-305]
- EC50 [3]: 440 nM
- EC50 [4]: 1020 nM
- EC50 [5]: 2560 nM
- CC50 at 4 days [6]: > 116000 nM
- EC50 [2]: 90 nM

SMILES: COc1cccc(NC(C(=O)c2c[nH]c3ccccc23)c2cncc(C)c2)c1 (stereo not shown) [CPD-309]
- EC50 [3]: 620 nM
- EC50 [4]: 700 nM
- EC50 [5]: 2800 nM
- CC50 at 4 days [6]: 74000 nM
- EC50 [2]: 540 nM

SMILES: COc1ccc(C(Nc2cccc(OC)c2)C(=O)c2c[nH]c3ccccc23)nc1 (stereo not shown) [CPD-310]
- EC50 [3]: 1110 nM
- EC50 [4]: 650 nM
- EC50 [5]: 9370 nM
- CC50 at 4 days [6]: 25000 nM
- EC50 [2]: 60 nM

SMILES: COc1cc(CO)cc(NC(C(=O)c2c[nH]c3ccccc23)c2ccc(F)cc2)c1 (stereo not shown) [CPD-313]
- EC50 [3]: 720 nM
- EC50 [4]: 1110 nM
- EC50 [5]: 5840 nM
- CC50 at 4 days [6]: 58000 nM
- EC50 [2]: 40 nM

SMILES: COc1cccc(NC(C(=O)c2c[nH]c3ccccc23)c2ccc(C#N)nc2)c1 (stereo not shown) [CPD-314]
- EC50 [3]: 1700 nM
- EC50 [4]: 2800 nM
- EC50 [5]: 8760 nM
- CC50 at 4 days [6]: 50000 nM
- EC50 [2]: 210 nM

SMILES: COc1cccc(NC(C(=O)c2c[nH]c3ccccc23)c2ccc(C(F)(F)F)nc2)c1 (stereo not shown) [CPD-315]
- EC50 [3]: 380 nM
- EC50 [4]: 1010 nM
- EC50 [5]: 1970 nM
- CC50 at 4 days [6]: 13000 nM
- EC50 [2]: 50 nM

SMILES: COc1cc(NC(C(=O)c2c[nH]c3cc(F)ccc23)c2ccccc2)cc(OCCO)c1 (stereo not shown) [CPD-316]
- EC50 [3]: 390 nM
- EC50 [4]: 320 nM
- EC50 [5]: 4420 nM
- CC50 at 4 days [6]: 29000 nM
- EC50 [2]: 20 nM

SMILES: COc1cccc(NC(C(=O)c2c[nH]c3ccccc23)c2cccnn2)c1 (stereo not shown) [CPD-317]
- EC50 [3]: 4130 nM
- EC50 [4]: 12800 nM
- EC50 [5]: 10600 nM
- CC50 at 4 days [6]: 88000 nM
- EC50 [2]: 580 nM

SMILES: COc1cc(CO)cc(NC(C(=O)c2c[nH]c3c(C)cccc23)c2ccccc2)c1 (stereo not shown) [CPD-318]
- EC50 [3]: 220 nM
- EC50 [4]: 2320 nM
- EC50 [5]: 10800 nM
- CC50 at 4 days [6]: 54000 nM
- EC50 [2]: 60 nM

SMILES: COc1cc(NC(C(=O)c2c[nH]c3ccccc23)c2ccccc2)cc(OC)n1 (stereo not shown) [CPD-319]
- EC50 [3]: 2840 nM
- EC50 [4]: 1700 nM
- EC50 [5]: 2270 nM
- CC50 at 4 days [6]: 20000 nM
- EC50 [2]: 120 nM

SMILES: COc1cccc(NC(C(=O)c2c[nH]c3ccccc23)c2cncc(F)c2)c1 (stereo not shown) [CPD-321]
- EC50 [3]: 400 nM
- EC50 [4]: 320 nM
- EC50 [5]: 2740 nM
- CC50 at 4 days [6]: 33000 nM
- EC50 [2]: 110 nM

SMILES: COc1cccc(NC(C(=O)c2c[nH]c3c(C)cccc23)c2cc3ccccn3n2)c1 (stereo not shown) [CPD-329]
- EC50 [3]: 270 nM
- EC50 [4]: 320 nM
- EC50 [5]: 2920 nM
- CC50 at 4 days [6]: 41000 nM
- EC50 [2]: 10 nM

SMILES: COc1cc(NC(C(=O)c2c[nH]c3c(C)cccc23)c2ccccc2)cc(OCCO)c1 (stereo not shown) [CPD-331]
- EC50 [3]: 390 nM
- EC50 [4]: 390 nM
- EC50 [5]: 3280 nM
- CC50 at 4 days [6]: 14000 nM
- EC50 [2]: 20 nM

SMILES: COc1cccc(NC(C(=O)c2c[nH]c3c(C)cccc23)c2ccc(OC)nc2)c1 (stereo not shown) [CPD-332]
- EC50 [3]: 720 nM
- EC50 [4]: 1350 nM
- EC50 [5]: 2840 nM
- CC50 at 4 days [6]: 20000 nM
- EC50 [2]: 40 nM

SMILES: COc1cc(CO)cc(NC(C(=O)c2c[nH]c3ccccc23)c2ccc(F)nc2)c1 (stereo not shown) [CPD-333]
- EC50 [3]: 390 nM
- EC50 [4]: 490 nM
- EC50 [5]: 5920 nM
- CC50 at 4 days [6]: 90000 nM
- EC50 [2]: 40 nM

SMILES: COc1cc(NC(C(=O)c2c[nH]c3ccccc23)c2ccc(OC)nc2)cc(OC)c1 (stereo not shown) [CPD-335]
- EC50 [3]: 320 nM
- EC50 [4]: 420 nM
- EC50 [5]: 2380 nM
- CC50 at 4 days [6]: 18000 nM
- EC50 [2]: 20 nM

SMILES: COc1cc(NC(C(=O)c2c[nH]c3c(C)cccc23)c2ccccc2)cc(OC)c1 (stereo not shown) [CPD-337]
- EC50 [3]: 90 nM
- EC50 [4]: 230 nM
- EC50 [5]: 950 nM
- CC50 at 4 days [6]: 15000 nM
- EC50 [2]: 5 nM

SMILES: COc1cc(NC(C(=O)c2c[nH]c3c(CCO)cccc23)c2ccccc2)cc(OC)c1 (stereo not shown) [CPD-339]
- EC50 [3]: 810 nM
- EC50 [4]: 820 nM
- EC50 [5]: 2930 nM
- CC50 at 4 days [6]: 19000 nM
- EC50 [2]: 90 nM

SMILES: COc1cc(NC(C(=O)c2c[nH]c3cccc(CCCO)c23)c2ccccc2)cc(OC)c1 (stereo not shown) [CPD-357]
- CC50 [1]: 55000 nM
- EC50 [2]: 1350 nM
